Test [1] deals with IL-6 production in LPS-stimulated murine spleenocytes. Description: Inhibition of IL-6 production in LPS-stimulated murine spleenocytes in vitro. Format: cell-based. As to conditions: Mus musculus, 50 μM concentration of the compound, read-out: inhibition of interleukin-6 (IL-6) production. As for the experimental part: Test and reference substances used in an in vitro assays were dissolved in dimethyl sulfoxide (DMSO) (Sigma Chemical Co., USA) at a concentration of 50 mM and were further diluted to test concentrations in appropriate cell culture medium.
After cervical dislocation, mouse spleens were removed using sterile dissection tools. Spleens were transferred to a pre-wetted cell strainer in a 50 mL sterile conical tube and cell suspension was made by gentle puddle. Cells were centrifuged (20 min, 300×g) and resuspended in 2 mL of sterile phosphate buffered saline (PBS) (Sigma Chemical Co., USA). Red blood cells were lysed by addition of 3 mL of sterile water and occasionally gentle shaking for 1 minute. Afterwards, the tube was filled to 40 mL with DMEM medium and centrifuged (20 min, 300×g). Cells were resuspended in DMEM supplemented with 1% FBS and seeded in a 24-well plate, 1×10^6 cells per mL medium.
Final concentrations of 50 μM, 25 μM, 12.5 μM, 6.3 μM and 3.1 μM of test compounds were prepared by diluting a 50 mM DMSO stock in Dulbecco's modified Eagle medium (DMEM) (Gibco, USA) supplemented with 1% heat inactivated fetal bovine serum (FBS) (BioWest, Ringmer, United Kingdom).
Cells were pre-incubated with the test compounds for 3 h at 37° C., in an atmosphere of 5% CO2 and 90% humidity. Afterwards, cells were stimulated with 1 μg/mL lipopolysaccharide (LPS, E. coli 0111:B4, Sigma Chemical Co., USA) and incubated overnight. Concentration of IL-6 was determined in cell supernatants by sandwich ELISA using capture and detection antibodies (R&D Systems, USA) according to the manufacturer's recommendations.
Inhibition (as percentage) was calculated using the following formula:
% inhibition=[1−(concentration of IL-6 in sample−concentration of IL-6 in negative control)/(concentration of IL-6 in positive control−concentration of IL-6 in negative control)]×100.
The positive control refers to LPS-stimulated samples that were not preincubated with the compounds.
The negative control refers to unstimulated and untreated samples.

In test [2] the test system is male BALB/cJ mice. Description: Lung neutrophilia induced by bacterial lipopolysaccharide in male BALB/cJ mice - Method B. Format: in vivo. As to conditions: Mus musculus, ip, 24 h, single dose of 100 mg/kg i.p., vs LPS challenged untreated animals. The protocol:
For intraperitoneal administration (i.p.) compounds were dissolved in a final concentration of 10 mg/mL. The required amount of compound was first dissolved in dimethylsulfoxide (DMSO, Sigma) and then diluted with 0.5% (w/v) methyl-cellulose so that the final DMSO concentration was 5% (v/v). The obtained solution was applied in a dose volume of 0.1 mL per 10 g of animal. Therefore, the compound dose was 100 mg/kg.
Male BALB/cJ mice (Charles River, Germany), with an average weight of ˜25 g were randomly grouped (n=8 in testing group, 10 in positive control and 6-8 in negative control). Mice received intraperitoneally (i.p.) a single dose of 100 mg/kg of test compound. Two hours after administration, 0.4 μg of LPS (from Escherichia coli serotype 0111:B4, Sigma), dissolved in sterile saline (0.9% NaCl) in a volume of 50 μL, was intranasally administered to all experimental groups except the negative control group, which received the same volume of vehicle (saline). Animals were sacrificed approximately 24 hours after application of LPS in order to obtain bronchoalveolar lavage fluid (BALF), which was used to determine absolute number of cells and the percentage of neutrophils. […] In some experiments neutrophil levels in BALF were assessed by measurement of concentration of a neutrophil-specific enzyme myeloperoxidase (MPO). Results are then expressed as percentage of decrease in myeloperoxidase (MPO) concentration measured in BALF lysates of treated animals compared to positive control (Mouse MPO ELISA Kit, Hycult biotechnology, Nederlands). For this purpose, BALF was sonicated after addition of 1.5% Triton-X-100 (Pharmacia Biotech) in Milli-Q water and frozen at −80° C. until analysed.

[3] abbreviates: Neutrophil, read-out: inhibition of number of neutrophils or decrease in myeloperoxidase concentration in BALF.
[4] abbreviates: read-out: inhibition of total cell number in BALF.

Here are results for 13 compounds from patent publication US20110281812A1, “Compounds” (priority 2009, published 2011).

Like-named read-outs stand apart in the source and are kept apart here.

Turning to `CC[C@H]1OC(=O)[C@H](C)[C@@H](O[C@H]2C[C@@](C)(OC)[C@@H](O)[C@H](C)O2)[C@H](C)[C@@H](O[C@@H]2O[C@H](C)C[C@H](N(C)C)[C@H]2OCCCNC(=O)CN(C)C)[C@](C)(O)C[C@@H](C)CN(C)[C@H](C)[C@@H](O)[C@]1(C)O` [Example 7, 2′-O-{3-[(N,N-Dimethylglycyl)amino]propyl}-9-deoxo-9a-methyl-9a-aza-9a-homoerythromycin A], in test [1], the inhibition (usually the drop in the measured response relative to a control, in per cent) at 50 µM was greater than 40%. Besides, the inhibition in vivo at 100 mg/kg in test [2] (setting [3]) and in test [2] (setting [4]) was greater than 30% in each case. With `CC[C@H]1OC(=O)[C@H](C)[C@@H](O[C@H]2C[C@@](C)(OC)[C@@H](O)[C@H](C)O2)[C@H](C)[C@@H](O[C@@H]2O[C@H](C)C[C@H](N(C)C)[C@H]2OCCCNC(=O)CCC(=O)OC)[C@](C)(O)C[C@@H](C)CN(C)[C@H](C)[C@@H](O)[C@]1(C)O` [Example 13, 2′-O-(3-{[4-(Methyloxy)-4-oxobutanoyl]amino}propyl)-9-deoxo-9a-methyl-9a-aza-9a-homoerythromycin A], the inhibition at 50 µM in test [1] is greater than 40%. Also, the inhibition in vivo at 100 mg/kg in test [2] (setting [3]) and in test [2] (setting [4]) was greater than 50% throughout. Turning to `CC[C@H]1OC(=O)[C@H](C)[C@@H](O[C@H]2C[C@@](C)(OC)[C@@H](O)[C@H](C)O2)[C@H](C)[C@@H](O[C@@H]2O[C@H](C)C[C@H](N(C)C)[C@H]2OCCCNC(=O)CCCC(=O)OC)[C@](C)(O)C[C@@H](C)CN(C)[C@H](C)[C@@H](O)[C@]1(C)O` [Example 14, 2′-O-(3-{[5-(Methyloxy)-5-oxopentanoyl]amino}propyl)-9-deoxo-9a-methyl-9a-aza-9a-homoerythromycin A], the inhibition at 50 µM in test [1] is greater than 40%. Further, the inhibition in vivo at 100 mg/kg in test [2] (setting [3]) and in test [2] (setting [4]) was greater than 30% each time. As to `CC[C@H]1OC(=O)[C@H](C)[C@@H](O[C@H]2C[C@@](C)(OC)[C@@H](O)[C@H](C)O2)[C@H](C)[C@@H](O[C@@H]2O[C@H](C)C[C@H](N(C)C)[C@H]2OCCCNC(=O)C2CCC2)[C@](C)(O)C[C@@H](C)CN(C)[C@H](C)[C@@H](O)[C@]1(C)O` [Example 15, 2′-O-{3-[(Cyclobutylcarbonyl)amino]propyl}-9-deoxo-9a-methyl-9a-aza-9a-homoerythromycin A], the inhibition at 50 µM in test [1] was greater than 40%. Also, the inhibition in vivo at 100 mg/kg in test [2] (setting [3]) and in test [2] (setting [4]) was greater than 30% in each case.

Regarding `CC[C@H]1OC(=O)[C@H](C)[C@@H](O[C@H]2C[C@@](C)(OC)[C@@H](O)[C@H](C)O2)[C@H](C)[C@@H](O[C@@H]2O[C@H](C)C[C@H](N(C)C)[C@H]2OCCCNC(=O)c2ccoc2)[C@](C)(O)C[C@@H](C)CN(C)[C@H](C)[C@@H](O)[C@]1(C)O` [Example 17, 2′-O-{3-[(3-Furanylcarbonyl)amino]propyl}-9-deoxo-9a-methyl-9a-aza-9a-homoerythromycin A], in test [1], the inhibition at 50 µM was greater than 40%. In addition, the inhibition in vivo at 100 mg/kg in test [2] (setting [3]) and in test [2] (setting [4]) was greater than 50% in each case. On to `CC[C@H]1OC(=O)[C@H](C)[C@@H](O[C@H]2C[C@@](C)(OC)[C@@H](O)[C@H](C)O2)[C@H](C)[C@@H](O[C@@H]2O[C@H](C)C[C@H](N(C)C)[C@H]2OCCCNC(=O)c2cnc(C)cn2)[C@](C)(O)C[C@@H](C)CN(C)[C@H](C)[C@@H](O)[C@]1(C)O` [Example 18, 2′-O-(3-{[(5-Methyl-2-pyrazinyl)carbonyl]amino}propyl)-9-deoxo-9a-methyl-9a-aza-9a-homoerythromycin A], for which the inhibition at 50 µM in test [1] is greater than 40%. The inhibition in vivo at 100 mg/kg in test [2] (setting [3]) and in test [2] (setting [4]) was greater than 50% in each case. Consider `CC[C@H]1OC(=O)[C@H](C)[C@@H](O[C@H]2C[C@@](C)(OC)[C@@H](O)[C@H](C)O2)[C@H](C)[C@@H](O[C@@H]2O[C@H](C)C[C@H](N(C)C)[C@H]2OCCCNC(=O)c2cccnc2Cl)[C@](C)(O)C[C@@H](C)CN(C)[C@H](C)[C@@H](O)[C@]1(C)O` [Example 34, 2′-O-(3-{[(2-Chloro-3-pyridinyl)carbonyl]amino}propyl)-9-deoxo-9a-methyl-9a-aza-9a-homoerythromycin A], for which the inhibition at 50 µM in test [1] was greater than 40%.

Regarding `CC[C@H]1OC(=O)[C@H](C)[C@@H](O[C@H]2C[C@@](C)(OC)[C@@H](O)[C@H](C)O2)[C@H](C)[C@@H](O[C@@H]2O[C@H](C)C[C@H](N(C)C)[C@H]2OCCCNC(=O)c2ccc(C)nc2Cl)[C@](C)(O)C[C@@H](C)CN(C)[C@H](C)[C@@H](O)[C@]1(C)O` [Example 35, 2′-O-(3-{[(2-Chloro-6-methyl-3-pyridinyl)carbonyl]amino}propyl)-9-deoxo-9a-methyl-9a-aza-9a-homoerythromycin A], in test [1], the inhibition at 50 µM is greater than 40%. On the same count and under the same terms, in the case of `CC[C@H]1OC(=O)[C@H](C)[C@@H](O[C@H]2C[C@@](C)(OC)[C@@H](O)[C@H](C)O2)[C@H](C)[C@@H](O[C@@H]2O[C@H](C)C[C@H](N(C)C)[C@H]2OCCCNC(=O)c2nccnc2N)[C@](C)(O)C[C@@H](C)CN(C)[C@H](C)[C@@H](O)[C@]1(C)O` [Example 37, 2′-O-(3-{[(3-Amino-2-pyrazinyl)carbonyl]amino}propyl)-9-deoxo-9a-methyl-9a-aza-9a-homoerythromycin A] it was greater than 40%.

As to `CC[C@H]1OC(=O)[C@H](C)[C@@H](O[C@H]2C[C@@](C)(OC)[C@@H](O)[C@H](C)O2)[C@H](C)[C@@H](O[C@@H]2O[C@H](C)C[C@H](N(C)C)[C@H]2OCCCNC(=O)c2c(C)nn(C)c2Cl)[C@](C)(O)C[C@@H](C)CN(C)[C@H](C)[C@@H](O)[C@]1(C)O` [Example 38, 2′-O-(3-{[(5-Chloro-1,3-dimethyl-1H-pyrazol-4-yl)carbonyl]amino}propyl)-9-deoxo-9a-methyl-9a-aza-9a-homoerythromycin A], the inhibition at 50 µM in test [1] was greater than 40%. On the same count and under the same terms, in the case of `CC[C@H]1OC(=O)[C@H](C)[C@@H](O[C@H]2C[C@@](C)(OC)[C@@H](O)[C@H](C)O2)[C@H](C)[C@@H](O[C@@H]2O[C@H](C)C[C@H](N(C)C)[C@H]2OCCCNC(=O)c2nc(C)oc2C)[C@](C)(O)C[C@@H](C)CN(C)[C@H](C)[C@@H](O)[C@]1(C)O` [Example 39, 2′-O-(3-{[(2,5-Dimethyl-1,3-oxazol-4-yl)carbonyl]amino}propyl)-9-deoxo-9a-methyl-9a-aza-9a-homoerythromycin A] it was greater than 40%.

As to `CC[C@H]1OC(=O)[C@H](C)[C@@H](O[C@H]2C[C@@](C)(OC)[C@@H](O)[C@H](C)O2)[C@H](C)[C@@H](O[C@@H]2O[C@H](C)C[C@H](N(C)C)[C@H]2OCCCNC(=O)[C@@H]2CCCN2C)[C@](C)(O)C[C@@H](C)CN(C)[C@H](C)[C@@H](O)[C@]1(C)O` [Example 40, 2′-O-{3-[(1-Methyl-L-prolyl)amino]propyl}-9-deoxo-9a-methyl-9a-aza-9a-homoerythromycin A], the inhibition at 50 µM in test [1] was greater than 40%. Same read-out and setting: in the case of `CC[C@H]1OC(=O)[C@H](C)[C@@H](O[C@H]2C[C@@](C)(OC)[C@@H](O)[C@H](C)O2)[C@H](C)[C@@H](O[C@@H]2O[C@H](C)C[C@H](N(C)C)[C@H]2OCCCNC(=O)CC(C)C)[C@](C)(O)C[C@@H](C)CN(C)[C@H](C)[C@@H](O)[C@]1(C)O` [Example 41, 2′-O-{3-[(3-Methylbutanoyl)amino]propyl}-9-deoxo-9a-methyl-9a-aza-9a-homoerythromycin A] it was greater than 40%.
